Source: US20100099712A1, “SUBSTITUTED PYRAZOLINE COMPOUNDS WITH ACAT INHIBITION ACTIVITY” (LABORATORIOS DEL DR. ESTEVE, S.A., priority 2007, published 2010)
Read-outs that look alike come from different tables or passages of the source.

Tests used:
[1] = target: T1, ACAT 1 (Acyl CoA-Cholesterol Acyltransferase 1) (Homo sapiens, UniProt P35610); assay: In-vitro determination of inhibition of ACAT 1 (microsomal membranes of U937 cells differentiated to macrophages, [14C]-Palmitoyl CoA); type: biochemical; conditions: for inhibition at 30 µM: 3 × 10^−5 M; for inhibition at 30 µM / inhibition at 3 µM / inhibition at 100 µM / inhibition at 10 µM / inhibition at 1 µM: read-out: ACAT 1 Inhibition (%) at various concentration of example; for inhibition at 3 µM: 3 × 10^−6 M; for inhibition at 100 µM: 10^−4 M; for inhibition at 10 µM: 10^−5 M; for inhibition at 1 µM: 10^−6 M; for IC50: U937 macrophage microsomes
T1 construct: Cells were collected, homogenized and microsomal membranes prepared; endogenous in cells; host or cells: U937 human monocyte cell line differentiated to macrophages with PMA; microsomal membranes
T1 sequence (P35610 1-550): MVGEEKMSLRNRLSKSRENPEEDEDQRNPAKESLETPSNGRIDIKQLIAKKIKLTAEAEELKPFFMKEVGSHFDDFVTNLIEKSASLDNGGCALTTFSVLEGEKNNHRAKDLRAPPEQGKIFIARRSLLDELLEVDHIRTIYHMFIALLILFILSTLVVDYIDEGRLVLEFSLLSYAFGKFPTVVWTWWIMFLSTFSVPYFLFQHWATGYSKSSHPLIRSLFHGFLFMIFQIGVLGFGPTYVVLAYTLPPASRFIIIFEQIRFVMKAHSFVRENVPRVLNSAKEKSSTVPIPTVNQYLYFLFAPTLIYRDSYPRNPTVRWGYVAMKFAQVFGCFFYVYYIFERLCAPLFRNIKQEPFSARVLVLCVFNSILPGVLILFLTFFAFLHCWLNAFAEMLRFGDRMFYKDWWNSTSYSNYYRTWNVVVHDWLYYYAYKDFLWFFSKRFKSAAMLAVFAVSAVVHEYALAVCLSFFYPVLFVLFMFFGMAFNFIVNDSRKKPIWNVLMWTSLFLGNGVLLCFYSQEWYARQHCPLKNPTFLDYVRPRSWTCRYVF
Description: I. In-vitro Determination of Inhibition of ACAT 1 (Acyl CoA-Cholesterol Acyltransferase 1)
The in-vitro determination of the inhibition of the enzyme ACAT 1 by the compounds of the invention is carried out in principle as described:
Human histiocytic monocyte cell line, U937 was differentiated to macrophages with Phorbol 12-myristate 13-acetate at a final concentration of 30 ng/mL for 72 hr. Cells were collected, homogenized and microsomal membranes prepared. Enzyme inhibition experiments were performed in the presence of 20 μM [^14]-Palmitoyl CoA as substrate. The vehicle used was 1% DMSO. Compounds to be tested were present at various concentrations and the incubation buffer used was 0.2M KH2PO4, 1 mM EDTA, 0.15% BSA, pH 7.4. After a 15 minutes preincubation period at 37° C. an incubation period of 1 hour at 37° C. followed. Quantification of [^14C]Cholesterol ester was done by column chromatography.

[2] = target: T2, ACAT 2 (Acyl CoA-Cholesterol Acyltransferase 2) (Rattus norvegicus, UniProt Q7TQM4); assay: In-vitro determination of inhibition of ACAT 2 (hepatic microsomes, [14C]-Palmitoyl CoA); type: biochemical, Wistar rats
T2 construct: Briefly hepatic microsomes were prepared from the Wistar rats; from tissue; host or cells: liver (hepatic microsomes) of Wistar rats
T2 sequence (Q7TQM4 1-524): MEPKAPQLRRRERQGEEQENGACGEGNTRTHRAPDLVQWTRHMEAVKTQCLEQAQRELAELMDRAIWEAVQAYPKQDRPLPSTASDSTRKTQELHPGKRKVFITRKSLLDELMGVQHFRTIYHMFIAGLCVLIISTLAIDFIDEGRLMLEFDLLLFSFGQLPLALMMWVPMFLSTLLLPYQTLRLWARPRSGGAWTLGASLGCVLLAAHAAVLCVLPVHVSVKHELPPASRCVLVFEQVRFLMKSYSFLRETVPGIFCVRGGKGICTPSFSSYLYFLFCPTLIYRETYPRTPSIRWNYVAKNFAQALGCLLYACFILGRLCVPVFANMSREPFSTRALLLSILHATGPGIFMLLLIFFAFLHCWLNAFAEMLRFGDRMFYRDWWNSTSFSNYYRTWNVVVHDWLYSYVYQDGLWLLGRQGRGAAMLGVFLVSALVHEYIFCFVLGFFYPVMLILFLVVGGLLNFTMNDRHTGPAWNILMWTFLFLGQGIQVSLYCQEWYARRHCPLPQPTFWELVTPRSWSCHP
Description: II. In-vitro Determination of Inhibition of ACAT 2 (Acyl CoA-Cholesterol Acyltransferase 2)
The in-vitro determination of the inhibition of the enzyme ACAT 2 by the compounds of the invention is carried out in principle as described in the publication of Largis EE, Wang CH, DeVries VG and Schaffer SA (1989), “A Novel inhibitor of ACAT-catalyzed cholesterol esterification and cholesterol absorption”, J. Lipid Res. 30, 681-689, (1989), whereby hepatic microsomes are used. The radio-substrate used is [^14C]-Palmitoyl CoA. The respective parts of the description are hereby incorporated by reference and forms part of the present disclosure.
Briefly hepatic microsomes were prepared from the Wistar rats. Enzyme inhibition experiments were performed in presence of 18 μM [^14C]-Palmitoyl CoA as substrate. The vehicle used was 1% DMSO. Compounds to be tested were present at various concentrations and the incubation buffer used was 0.2 M Phosphate buffer, pH 7.4 at 25° C. After a 15 minutes preincubation period at 37° C. an incubation period of 10 minutes at 37° C. followed. Quantification of [^14C]Cholesterol ester was done by column chromatography.

[3] = target: T2, ACAT 2 (Acyl CoA-Cholesterol Acyltransferase 2); conditions: reported value; read-out: ACAT 2 reported IC50 of reference compound; cited from earlier work
[4] = 3 × 10^−6 M, first ACAT 2 table, read-out: ACAT 2 Inhibition (%) at various concentration of example
[5] = 3 × 10^−6 M, second ACAT 2 table, column 4, read-out: ACAT 2 Inhibition (%) at various concentration of example
[6] = 3 × 10^−7 M, first ACAT 2 table, read-out: ACAT 2 Inhibition (%) at various concentration of example
[7] = 10^−5 M, first ACAT 2 table, read-out: ACAT 2 Inhibition (%) at various concentration of example
[8] = 10^−5 M, second ACAT 2 table, column 3, read-out: ACAT 2 Inhibition (%) at various concentration of example
[9] = 10^−6 M, first ACAT 2 table, read-out: ACAT 2 Inhibition (%) at various concentration of example
[10] = second ACAT 2 table, value marked * estimated from 2 different experiments

Row | Structure (SMILES) | inhibition at 30 µM [1] | inhibition at 3 µM [1] | inhibition at 100 µM [1] | inhibition at 10 µM [1] | inhibition at 1 µM [1] | IC50 [1] | inhibition at 3 µM [2, 4] | inhibition at 3 µM [2, 5] | inhibition at 0.3 µM [2, 6] | inhibition at 10 µM [2, 7] | inhibition at 10 µM [2, 8] | inhibition at 1 µM [2, 9] | IC50 ([2]; first ACAT 2 table) | IC50 [2, 10] | also measured
1 | C[C@@H]1[C@@H](c2ccccc2)C(C(=O)NN2CCCCC2)=NN1c1ccc(Cl)cc1Cl (racemic) [Example 1, 1-(2,4-Dichlorophenyl)-5-methyl-4-phenyl-4,5-dihydro-1H-pyrazole-3-carboxylic acid piperidin-1-ylamide] | 72% | 38% | 55% | 65% | 14% | 9.66 µM | 70% | 74% | 19% | 94% | 93% | 44% | 1.28 µM | < 3 µM | inhibition at 30 µM ([2]; 3 × 10^−5 M, second ACAT 2 table, read-out: ACAT 2 Inhibition (%) at various concentration of example): 97%; inhibition at 100 µM ([2]; 10^−4 M, second ACAT 2 table, read-out: ACAT 2 Inhibition (%) at various concentration of example): 101%; inhibition at 0.1 µM ([2]; 10^−7 M, first ACAT 2 table, read-out: ACAT 2 Inhibition (%) at various concentration of example): -3%
2 | C[C@@H]1[C@@H](c2ccccc2)C(C(=O)NN2CCCCC2)=NN1c1ccc(Cl)cc1Cl.Cl (racemic) [Example 2, 1-(2,4-Dichloro-phenyl)-5-methyl-4-phenyl-4,5-dihydro-1H-pyrazole-3-carboxylic acid piperidin-1-ylamide; Hydrochloride] |  |  |  |  |  |  |  |  |  |  |  |  | 1.42 µM |  | ACAT 2 Inhibition (%) at various concentration of example ([2]; 3 × 10^−5 M, second ACAT 2 table): 96%; ACAT 2 Inhibition (%) at various concentration of example ([2]; 3 × 10^−6 M, first ACAT 2 table): 70%; ACAT 2 Inhibition (%) at various concentration of example ([2]; 3 × 10^−7 M, first ACAT 2 table): 17%; ACAT 2 Inhibition (%) at various concentration of example ([2]; 10^−4 M, second ACAT 2 table): 100%; ACAT 2 Inhibition (%) at various concentration of example ([2]; 10^−5 M, first ACAT 2 table): 90%; ACAT 2 Inhibition (%) at various concentration of example ([2]; 10^−6 M, first ACAT 2 table): 39%; ACAT 2 Inhibition (%) at various concentration of example ([2]; 10^−7 M, first ACAT 2 table): 4%
3 | CC1C(c2ccccc2)C(C(=O)O)=NN1c1ccc(Cl)cc1Cl (stereo not shown) [Example 3, 1-(2,4-Dichloro-phenyl)-5-methyl-4-phenyl-4,5-dihydro-1H-pyrazole-3-carboxylic acid] | 74% | 50% | 86% | 64% | 17% | 4.84 µM | 75% | 71% | 29% | 88% | 86% | 56% | 0.82 µM | 2 µM | inhibition at 30 µM ([2]; 3 × 10^−5 M, first ACAT 2 table, read-out: ACAT 2 Inhibition (%) at various concentration of example): 92%; inhibition at 3 µM ([2]; 3 × 10^−6 M, second ACAT 2 table, repeated head, column 6, read-out: ACAT 2 Inhibition (%) at various concentration of example): 40%; inhibition at 10 µM ([2]; 10^−5 M, second ACAT 2 table, repeated head, column 5, read-out: ACAT 2 Inhibition (%) at various concentration of example): 65%
4 | CC[C@H](C)C(=O)O[C@H]1C[C@@H](C)C=C2C=C[C@H](C)[C@H](CC[C@@H]3C[C@@H](O)CC(=O)O3)[C@H]21 [Lovastatin, reference compound] |  |  |  |  |  | 9.6 µM |  |  |  |  |  |  | 22.7 µM | 12.5 µM | IC50 [3]: 29 µM
